# Article doi:10.1101/2024.04.15.589505v1 (biorxiv, 2024)
# What was measured:
# [1] = biological target: T1, DENV2 protease (DENV2pro; DENV serotype 2 NS2B-NS3 protease construct, GGGGSGGGG-linked) (Dengue virus 2 Thailand/16681/84, UniProt P29990); test: biochemical
# [2] = biological target: T1, DENV2 protease (DENV2pro; DENV serotype 2 NS2B-NS3 protease construct, GGGGSGGGG-linked); test: biochemical; type: binding
# T1 sequence (P29990 1394-1440 limits assumed): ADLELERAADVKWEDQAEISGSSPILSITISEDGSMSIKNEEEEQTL
# T1 sequence (P29990 1476-1660 limits assumed): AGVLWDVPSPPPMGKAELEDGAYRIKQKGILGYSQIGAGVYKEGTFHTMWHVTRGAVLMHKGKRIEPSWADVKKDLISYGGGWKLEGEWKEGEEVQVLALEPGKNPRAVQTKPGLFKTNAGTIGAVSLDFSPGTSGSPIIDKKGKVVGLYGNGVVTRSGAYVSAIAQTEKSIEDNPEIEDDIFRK
SMILES,IC50 [1],Kd [2]
CC(C)(C)NC(=O)C(=O)/C=C/c1c[nH]c2ccccc12 [compound 5],37.1 ± 1.29 µM,–
NC(=O)c1ccc(CNC(=O)[C@@H](NC(=O)c2ccc(-c3cccs3)s2)c2ccc(OCc3ccccc3)cc2)cc1 [compound 23],–,2.4 ± 0.6 µM
NC(=O)c1cccc(NC(=O)[C@@H](NC(=O)c2ccc(Oc3ccccc3)cc2)c2ccc(OCc3ccccc3)cc2)c1 [compound 4],5.37 ± 0.73 µM,–
CCCCCC(=O)N[C@H](C(=O)NCc1ccc(NC(=N)N)cc1)c1ccc(OCc2ccccc2)cc1 [compound 3],17.6 ± 2.15 µM,–
N=C(N)NCCC[C@H](NC(=O)[C@H](CCCNC(=N)N)NC(=O)c1ccccc1)B(O)O [compound 1],0.68 ± 0.01 µM,–
